Assay results published in patent US6211439A, “Herbicide resistance in plants” (MGI Pharma, Inc, priority 1995, dated 2001).
pIC50: −log10 of the molar value. In brackets after ≈: the same amount, converted by molar mass. Read-outs that look alike come from different tables or passages of the source.

Key:
cell line XA119 = test: Tolerance of cell line XA119 at the cellular level; type: cell-based, maize
[1] = test system: acetohydroxyacid synthase (AHAS); test: AHAS activity assay, extract of maize cell cultures / control tissue; type: biochemical
Method: Plant cell culture material was ground with sand in a cold mortar and pestle in an equal quantity (w/v) of cell disruption media containing 0.05 M potassium phosphate (pH 7.0), 0.1 mM MgSO4, and 0.5 mM dithiothreitol. The preparation was centrifuged at 11,000×g for 20 minutes and the supernatant assayed for AHAS activity. Assays were conducted in 1 ml volumes containing 0.05 M potassium phosphate (pH 8.0), 40 mM pyruvate, 5 mM MgCl2, 0.1 mM thiamine pyrophosphate, 0.2 ml cell extract, and various concentrations of the herbicide of interest. The reaction mixtures were incubated at 30° C. for 75 minutes and the reaction terminated with the addition of 0.1 ml of 50% (v/v) H2 SO4. […] To 0.2 ml of reaction mixture, 0.8 ml of water, 0.5 ml of 0.5% (w/v) creatine, and 0.5 ml of 5% (w/v) naphthol in 10% (w/v) NaOH was added. After mixing, solutions were incubated at room temperature for one hour.

line XA17 tissue = test: Plant regeneration from line XA17 callus in presence of herbicide; type: cell-based, maize; details: 0.1, 0.3, and 3.0 mg per liter 214
Method: (§1) Eighty to 90 mg quantities of maize callus tissue were transferred to embryo and shoot development (regeneration) media in petri plates. The media consisted of MS basal media supplemented with 0.1 mg per liter 2,4-D and 1×10^-7 M abscissic acid. 0.25% Gelrite (Kelco Co., San Diego, Calif.) was used as a solid support in place of agar. The tissue was incubated in the dark at 26° C. (approximately 300 footcandles,soft white fluorescent) on a cycle of 14 hours light, 10 hours dark. Developing plants reaching a size of 1-3 cm were then transferred to flasks or jars, containing MS media with no supplementation, for further development. When plants reached the two to three leaf stage, they were moved to pots containing vermiculite and exposed to light at 2600 footcandles. These plants were watered with 20% v/v MS media for one week and then with water until they grew stably. The plants were then transferred to soil for growth to maturity.
Traits which are selected for and expressed in undifferentiated cell cultures are not necessarily expressed in the differentiated organs and tissues of a developing plant. Therefore, it was necessary to examine plants regenerated from line XA17 callus tissue in the presence of normally inhibitory concentrations of 214. Line XA17 tissue was transferred to regeneration media containing 0.1, 0.3, and 3.0 mg per liter 214.

[2] = test system: Unselected culture tissue; test: Herbicide inhibition of plant regeneration, unselected culture tissue; type: cell-based, maize
Method: as §1
The effect of various concentrations of 214 on plant regeneration embryo and shoot development were evaluated. Unselected culture tissue was transferred to regeneration media containing various concentrations of 214 ranging from 0.01 to 0.3 mg per liter. The tissue was then put through the first three weeks of the plant regeneration protocol described supra. The culture was scored after this time for the production of well defined shoots.

Suspension culture cells = test: Protein synthesis: incorporation of radiolabeled amino acids into TCA-precipitable cell components; type: cell-based, maize; details: Zea mays; 1×10^-5 M 997; cells at different post-subculture intervals; cell fresh weight basis
Method: Suspension culture cells were preincubated for 48 hours in the presence or absence of 1×10^-5 M 997 and then exposed for 12 hours to 75 !Ci of either ^35 S-methionine (1210 Ci/mmol, New England Nuclear, Boston, Mass.) or ^3 H-DL-leucine (55 Ci/mmol, ICN Pharmaceuticals Inc. -K and K Laboratories, Plainview, N.Y.) per 0.1 ml of cells at a cell density of 10% volume cells/volume suspension. Cells were then centrifuged 300×g, washed with cold MS culture media, and ground with a cold mortar and pestle in the presence of one volume of 6 M urea. The resulting extract was centrifuged at 12,800×g for 5 minutes. The pellet was then reextracted and, following centrifugation, the extracts were combined. Protein was precipitated by the addition of 10% w/v trichloroacetic acid (TCA). Protein was removed by centrifugation and resolubilized in 6 M urea. Incorporation of radiolabel into protein was determined by scintillation counting.

maize seedlings = test: Germination and seedling growth from excised mature maize embryos; type: in vivo; details: concentration in the media, shoot growth after seven days
Method: The herbicidal effects of 997 on maize seedlings were determined by evaluating germination and seedling growth from excised, mature maize embryos (Green, 1974, Crop Sci. 14: 54-58). Seeds were sterilized for 10 minutes in 0.5% hypochlorite and then imbibed for 24 hours in sterile, distilled water. Mature embryos were aseptically excised and plated on solid MS media […] containing various concentrations of 997 and no 2,4-D. Embryos were placed with their shoot axis away from the media. Shoot growth was quantitated after seven days.

[3] = test system: isozymes of AHAS (I, II and III); test: E. coli AHAS isozymes assayed in vitro; type: biochemical; details: millimolar concentrations
Excerpt: Genes encoding AHAS are common to the aspartate and branched chain amino acid pathways in plants and microorganisms (Umbarger, 1978, Ann. Rev. Biochem, 47: 533-606). AHAS catalyzes the first step in the synthesis of the amino acids leucine, valine and isoleucine. AHAS activity is regulated in vivo by various end products or combination of end products of the biosynthetic pathway. AHAS genes with a variety of regulatory characteristics are available from microorganisms including, but not limited to, Escherichia coli, yeast and Neurospora. These might include AHAS genes which are naturally resistant to the imidazolinone herbicides. […] Resistance of E. coli to AC 243,997 therefore appears to be the result of an insensitive site of action as opposed to being a result of metabolism of the herbicide. Resistance in other organisms is likely to be of the same nature, providing a variety of sources of a gene encoding an herbicide resistant AHAS. The genes encoding all three E. coli isozymes have been cloned and sequenced. Selection for imidazolinone resistant mutant AHAS genes in microorganisms or plants including plant tissue cultures would provide a diverse source of genes which, when transferred to plants, produce herbicide resistant plants.

[4] = AHAS activity of control tissue, read-out: concentration inhibiting AHAS activity 50%

`CC(C)C1(C)NC(c2nc3ccccc3cc2C(=O)O)=NC1=O` (centres unmarked) [compound 214, 2-(5-isopropyl-5-methyl-4-oxo-2-imidazolin-2-yl)3-quinolinecarboxylic acid] was tested, and the “enhancement of tolerance at the cellular level” value (cell line XA119) was “approximately three fold”, the “effect on AHAS enzyme activity” value ([1]; AHAS activity from maize cell cultures) was “inhibited the enzyme activity” and the pIC50 [1, 4] was 5.00 to 6.00. The “plantlet development on regeneration media” value (line XA17 tissue) was “Normally developing plantlets were obtained at all three herbicide levels”, the “somatic embryo development and shoot formation” value ([2]; 0.3 mg per liter 214) was “completely inhibited” and the IC50 ([2]; Zea mays, 504 h, based on the number of shoots formed, first three weeks of regeneration protocol, read-out: concentration inhibiting plant regeneration 50%) was 0.03 to 0.1 µg/mL (≈ 0.0964 to 0.321 µM).

In the case of `CC(C)C1(C)NC(c2ncccc2C(=O)O)=NC1=O` (centres unmarked) [compound 997, 2-(5-isopropyl-5-methyl-4-oxo-2-imidazolin-2-yl)nicotinic acid], the inhibition at 10 µM (Suspension culture cells) was 50 to 77%, the pIC50 ([1]; AHAS activity from maize cell cultures, read-out: concentration reducing AHAS enzyme activity 50%) was 5.10 and the pIC50 [1, 4] was 5.00 to 6.00. For the same compound, the “herbicide concentration giving 50% growth inhibition” value (maize seedlings) was 1 to 3×10^-8 M and the “sensitivity of AHAS isozymes I, II and III” value [3] was “insensitive to millimolar concentrations”.
